Measured values: ChEMBL document CHEMBL1138941, “BACE-1 inhibition by a series of psi[CH2NH] reduced amide isosteres” (Bioorg Med Chem Lett, 2006)
pIC50: −log10 of the molar value. One block for each compound: values may come before it.

Columns and labels:
[1] = biological target: T1, Beta-secretase 1 (Homo sapiens, UniProt P56817); assay: Inhibition of soluble APPbeta N-terminal fragment production in HEK293T cells; format: functional, cell-based, HEK-293T
[2] = biological target: T1, Beta-secretase 1; assay: Inhibition of BACE1
[3] = Apparent permeability of the compound; format: ADME; settings: not told

T1 sequence (P56817 whole entry, the tested form may be a part): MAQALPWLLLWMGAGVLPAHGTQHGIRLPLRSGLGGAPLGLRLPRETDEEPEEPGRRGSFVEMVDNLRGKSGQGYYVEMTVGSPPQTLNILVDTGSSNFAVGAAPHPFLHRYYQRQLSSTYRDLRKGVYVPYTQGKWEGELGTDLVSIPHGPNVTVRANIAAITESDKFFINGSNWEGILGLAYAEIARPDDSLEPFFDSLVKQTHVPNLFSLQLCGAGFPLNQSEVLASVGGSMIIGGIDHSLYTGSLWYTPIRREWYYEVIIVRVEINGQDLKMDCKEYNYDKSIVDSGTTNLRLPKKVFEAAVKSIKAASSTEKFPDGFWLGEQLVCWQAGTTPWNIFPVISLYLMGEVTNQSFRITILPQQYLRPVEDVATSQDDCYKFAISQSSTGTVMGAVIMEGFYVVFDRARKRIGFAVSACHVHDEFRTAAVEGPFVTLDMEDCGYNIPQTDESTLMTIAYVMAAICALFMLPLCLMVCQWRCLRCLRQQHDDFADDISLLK

SMILES: CCNC(=O)[C@H](C)NC[C@H](Cc1ccccc1)NC(=O)c1cc(C(=O)N[C@H](C)c2ccc(F)cc2)cc(N(C)S(C)(=O)=O)c1
pIC50 [1]: 6.62
pIC50 [2]: 7.28

SMILES: CC(C)CNC(=O)[C@H](C)NC[C@H](Cc1ccccc1)NC(=O)c1cc(CCC2C[C@@H]2C)cc(N(C)S(C)(=O)=O)c1 (stereo partly specified)
pIC50 [1]: 7.64
pIC50 [2]: 7.70
Papp [3]: 24 ×10⁻⁶ cm/s

SMILES: C[C@@H](NC(=O)c1cc(C(=O)N[C@H](CN)Cc2ccccc2)cc(N(C)S(C)(=O)=O)c1)c1ccc(F)cc1
pIC50 [2]: 5.23

SMILES: C[C@H](NC[C@H](Cc1ccccc1)NC(=O)c1cc(C(=O)N[C@H](C)c2ccc(F)cc2)cc(N(C)S(C)(=O)=O)c1)C(=O)NCc1ccccc1
pIC50 [1]: 6.14
pIC50 [2]: 6.86

SMILES: C[C@H](NC[C@H](Cc1ccccc1)NC(=O)c1cc(C(=O)N[C@H](C)c2ccc(F)cc2)cc(N(C)S(C)(=O)=O)c1)C(=O)N1CCC[C@H]1C(=O)O
pIC50 [1]: < 4.70
pIC50 [2]: 4.76

SMILES: C[C@@H](NC(=O)c1cc(C(=O)N[C@@H](Cc2ccccc2)[C@H](O)CNC2CC2)cc(N(C)S(C)(=O)=O)c1)c1ccc(F)cc1
Papp [3]: 0.6 ×10⁻⁶ cm/s

SMILES: CC(C)CNC(=O)[C@H](C)NC[C@H](Cc1ccccc1)NC(=O)c1cc(C(=O)N[C@H](C)c2ccc(F)cc2)cc(N(C)S(C)(=O)=O)c1
pIC50 [1]: 7.66
Papp [3]: 10 ×10⁻⁶ cm/s

SMILES: C[C@@H](NC(=O)c1cc(C(=O)N[C@H](CO)Cc2ccccc2)cc(N(C)S(C)(=O)=O)c1)c1ccc(F)cc1
pIC50 [2]: 6.20

SMILES: CC(C)CNC(=O)CNC[C@H](Cc1ccccc1)NC(=O)c1cc(C(=O)N[C@H](C)c2ccc(F)cc2)cc(N(C)S(C)(=O)=O)c1
pIC50 [1]: 5.43
pIC50 [2]: 6.93

Continued by rising pIC50 [2], values first:

pIC50 [1]: 6.88
pIC50 [2]: 7.62
SMILES: C[C@H](NC[C@H](Cc1ccccc1)NC(=O)c1cc(C(=O)N[C@H](C)c2ccc(F)cc2)cc(N(C)S(C)(=O)=O)c1)C(=O)NC1CC1

pIC50 [1]: 4.76
pIC50 [2]: 7.89
SMILES: CC(C)CNC(=O)[C@H](CCS(C)(=O)=O)NC[C@H](Cc1ccccc1)NC(=O)c1cc(C(=O)N[C@H](C)c2ccc(F)cc2)cc(N(C)S(C)(=O)=O)c1

pIC50 [1]: 6.12
pIC50 [2]: 7.89
SMILES: CC(C)CNC(=O)[C@H](CCO)NC[C@H](Cc1ccccc1)NC(=O)c1cc(C(=O)N[C@H](C)c2ccc(F)cc2)cc(N(C)S(C)(=O)=O)c1

pIC50 [1]: 7.70
pIC50 [2]: 8.15
SMILES: CC[C@H](NC[C@H](Cc1ccccc1)NC(=O)c1cc(C(=O)N[C@H](C)c2ccc(F)cc2)cc(N(C)S(C)(=O)=O)c1)C(=O)NCC(C)C

pIC50 [1]: 7.77
pIC50 [2]: 8.40
SMILES: CCC[C@H](NC[C@H](Cc1ccccc1)NC(=O)c1cc(C(=O)N[C@H](C)c2ccc(F)cc2)cc(N(C)S(C)(=O)=O)c1)C(=O)NCC(C)C
